Structures can show the parent of a compound that is named as a salt.
How the values were obtained:
Format in all cases: in vivo, human
[1] = tested on: patients with facial acne vulgaris; assay: Pain during light exposure and post-PDT pain, visual analog scale (Phase II study); settings: for Pain during light exposure, Mean: visual analog scale 0-100
Experimental: (§1) A clinical Phase II study involving 23 males and 20 females (age 18 years or more) with facial acne vulgaris (papulo-pustular acne and at least 15 inflammatory acne lesions on at least one side of the face) has been performed. Patients were randomized to receive either MAL cream on the face at a concentration of 160 mg/g (16% wt), 80 mg/g (8% wt) or 40 mg/g (4% wt). The cream was administered under occlusion. […] A light dose of 37 J/cm^2 using Photocure's Aktilite 128 LED light source was provided at a working distance between 5 and 8 cm. The average time to deliver said light dose was about 8 minutes. Safety was evaluated by medical questionnaire and adverse events, i.e., side effects, reporting. Mean pain during light exposure was evaluated by patients on a visual analog scale where 0=no pain and 100=worst possible pain.

[2] = tested on: patients with facial acne vulgaris; assay: Post-PDT erythema from patient journal (Phase II study)
Experimental: as §1, with “This information” for “Safety”, “derived from the journal kept” for “evaluated”, “patients. […] There is a significant difference among the 6 groups in the duration of post PDT erythema (p=0.03). […] In fact, all” for “medical questionnaire and adverse events, i.e., side effects, reporting. Mean pain during light exposure was evaluated by”, “in the standard PDT treatment group experienced post-PDT erythema.” for “on a visual analog scale where 0=no pain and 100=worst possible pain.”

[3] = tested on: patients with facial acne vulgaris; assay: Adverse events subsequent to light exposure (Phase II study)
Experimental: as §1, with “reporting. Additional data relating to the adverse events, i.e., side effects, observed subsequent to” for “reporting. Mean pain during”, “exposure during the study are shown in the table below. For” for “exposure was evaluated by”, “patients who received the standard PDT treatment, i.e., patients in the 3 h after MAL (160 mg/g) group, not only” for “patients on”, “a larger number of adverse events were observed than for the patients in any of the other groups, but the adverse events were also more severe in nature, i.e., higher numbers of moderate” for “a visual analog scale where 0=no pain”, “and severe adverse events (AEs) were observed.” for “and 100=worst possible pain.”

[4] = 160 mg/g 3 h and 80 mg/g 1.5 h groups together
[5] = 3 h, 160 mg/g (standard PDT), 7 patients

## COC(=O)CCC(=O)CN [MAL, methylaminolevulinate hydrochloride]
[1]; [4]
  Patients in whom light delivery had to be ended because of pain: 2 patients
  Patients in whom light delivery had to be interrupted because of pain: 2 patients
[1]; 0.5 h after MAL (80 mg/g)
  Patients experiencing post-PDT pain: 1 out of 6
[1]; MAL cream 40 mg/g, 1 h before red light 37 J/cm^2
  Pain during light exposure, Mean: 2
[1]; MAL cream 40 mg/g, 1.5 h before red light 37 J/cm^2
  Pain during light exposure, Mean: 19
[1]; MAL cream 80 mg/g, 0.5 h before red light 37 J/cm^2
  Pain during light exposure, Mean: 1
[1]; MAL cream 80 mg/g, 1 h before red light 37 J/cm^2
  Pain during light exposure, Mean: 9
[1]; MAL cream 80 mg/g, 1.5 h before red light 37 J/cm^2
  Pain during light exposure, Mean: 32
[1]; MAL cream 160 mg/g, 3 h before red light 37 J/cm^2 (standard PDT)
  Pain during light exposure, Mean: 64
[1]; all other groups (40 mg/g 1 h and 1.5 h; 80 mg/g 1 h and 1.5 h)
  Patients experiencing post-PDT pain: zero
[1]; standard PDT group (160 mg/g, 3 h)
  Patients experiencing post-PDT pain: 5 out of 7
[2]; 40 mg/g for 1 hour
  Mean duration of erythema (shortest): 0.5 days
[2]; 160 mg/g for 3 hours
  Mean duration of erythema (longest): 14 days
[2]; MAL cream 40 mg/g, 1 h
  Duration of post PDT erythema, Mean: 4 days
[2]; MAL cream 40 mg/g, 1 h, 8 patients in group
  n: number of patients experiencing post-PDT erythema: 4
[2]; MAL cream 40 mg/g, 1.5 h
  Duration of post PDT erythema, Mean: 1.8 days
[2]; MAL cream 40 mg/g, 1.5 h, 8 patients in group
  n: number of patients experiencing post-PDT erythema: 6
[2]; MAL cream 80 mg/g, 0.5 h, 6 patients in group
  n: number of patients experiencing post-PDT erythema: 0
[2]; MAL cream 80 mg/g, 1 h
  Duration of post PDT erythema, Mean: 2.1 days
[2]; MAL cream 80 mg/g, 1 h, 8 patients in group
  n: number of patients experiencing post-PDT erythema: 5
[2]; MAL cream 80 mg/g, 1.5 h
  Duration of post PDT erythema, Mean: 3.7 days
[2]; MAL cream 80 mg/g, 1.5 h, 6 patients in group
  n: number of patients experiencing post-PDT erythema: 3
[2]; MAL cream 160 mg/g, 3 h (standard PDT)
  Duration of post PDT erythema, Mean: 11.9 days
[2]; MAL cream 160 mg/g, 3 h (standard PDT), 7 patients in group
  n: number of patients experiencing post-PDT erythema: 7
[2]; standard PDT treatment group (160 mg/g, 3 h)
  Patients experiencing post-PDT erythema: all patients
[3]; 0.5 h, 80 mg/g
  Mild AEs Per Pat: 0.6
  Moderate AEs Per Pat: 0
  Severe AEs Per Pat: 0
  Total AEs Per Pat: 0.667
[3]; 0.5 h, 80 mg/g, 6 patients
  Mild AEs: 4
  Moderate AEs: 0
  Severe AEs: 0
  Total AEs: 4
[3]; 1 h, 40 mg/g
  Mild AEs Per Pat: 1.125
  Moderate AEs Per Pat: 0
  Severe AEs Per Pat: 0
  Total AEs Per Pat: 1.125
[3]; 1 h, 40 mg/g, 8 patients
  Mild AEs: 9
  Moderate AEs: 0
  Severe AEs: 0
  Total AEs: 9
[3]; 1 h, 80 mg/g
  Mild AEs Per Pat: 1.375
  Moderate AEs Per Pat: 0
  Severe AEs Per Pat: 0
  Total AEs Per Pat: 1.375
[3]; 1 h, 80 mg/g, 8 patients
  Mild AEs: 11
  Moderate AEs: 0
  Severe AEs: 0
  Total AEs: 11
[3]; 1.5 h, 40 mg/g
  Mild AEs Per Pat: 2
  Moderate AEs Per Pat: 0.125
  Severe AEs Per Pat: 0
  Total AEs Per Pat: 2.125
[3]; 1.5 h, 40 mg/g, 8 patients
  Mild AEs: 16
  Moderate AEs: 1
  Severe AEs: 0
  Total AEs: 17
[3]; 1.5 h, 80 mg/g
  Mild AEs Per Pat: 1.5
  Moderate AEs Per Pat: 0.167
  Severe AEs Per Pat: 0.167
  Total AEs Per Pat: 1.833
[3]; 1.5 h, 80 mg/g, 6 patients
  Mild AEs: 9
  Moderate AEs: 1
  Severe AEs: 1
  Total AEs: 11
[3]; 3 h, 160 mg/g (standard PDT)
  Mild AEs Per Pat: 2.14
  Moderate AEs Per Pat: 1
  Severe AEs Per Pat: 0.429
  Total AEs Per Pat: 3.571
[3]; [5]
  Mild AEs: 15
  Moderate AEs: 7
  Severe AEs: 3
  Total AEs: 25
[3]; standard PDT treatment, 3 h after MAL (160 mg/g), did not occur with any other treatment modality
  Cracked skin with bleeding: one patient

From US10543272B2, “Use of aminolevulinic acid and derivatives thereof” (Photocure ASA, priority 2007, dated 2020)
